Measurements published in US8497276B2, “Substituted indolo-piperidine compounds” (ArQule, Inc., priority 2009, dated 2013).

Tests used:
PACA-2 = assay: MTS Assay (cell growth inhibition), PACA-2; format: cell-based; conditions: PACA-2 cells, 72 hours with test compound; concentration not given
Method in brief: (§1)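 First, seed 3000 cells per well in low-serum (1% FBS) DMEM and culture 18 h. Next, add compounds prepared at 300× in DMSO and diluted 1:40 in DMEM; incubate 72 h. Finally, add MTS/PMS for 4 h and measure absorbance at 492 nm.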

MDA-MB 231 = assay: MTS Assay (cell growth inhibition), MDA-MB 231; format: cell-based; conditions: MDA-MB 231 cells, 72 hours with test compound; concentration not given
Method in brief: as §1

Tec kinase = target: T1, Tec kinase (Homo sapiens, UniProt P42680); assay: Tec Kinase Activity Assay; format: biochemical; conditions: 75 μM ATP, Pyk-2 substrate; compound concentration not given
T1 sequence (P42680 1-631): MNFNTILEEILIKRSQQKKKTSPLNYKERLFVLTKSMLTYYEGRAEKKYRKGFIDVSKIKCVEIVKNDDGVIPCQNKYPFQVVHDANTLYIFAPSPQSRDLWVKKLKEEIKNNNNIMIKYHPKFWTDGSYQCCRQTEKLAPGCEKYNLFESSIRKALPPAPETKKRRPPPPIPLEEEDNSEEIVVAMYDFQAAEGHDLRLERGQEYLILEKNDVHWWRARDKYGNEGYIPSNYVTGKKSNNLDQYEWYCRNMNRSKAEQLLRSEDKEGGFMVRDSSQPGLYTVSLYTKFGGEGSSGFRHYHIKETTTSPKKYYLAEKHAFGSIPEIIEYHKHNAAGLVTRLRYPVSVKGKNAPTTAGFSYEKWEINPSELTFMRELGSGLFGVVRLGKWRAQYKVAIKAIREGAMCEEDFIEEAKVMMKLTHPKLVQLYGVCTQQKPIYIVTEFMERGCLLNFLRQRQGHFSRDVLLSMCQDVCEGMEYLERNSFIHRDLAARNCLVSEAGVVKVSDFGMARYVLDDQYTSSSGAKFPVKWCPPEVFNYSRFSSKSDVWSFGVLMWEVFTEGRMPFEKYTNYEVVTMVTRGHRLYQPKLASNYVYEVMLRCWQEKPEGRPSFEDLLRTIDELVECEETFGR
Method in brief: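 TEC enzyme was preincubated 30 min with compound in buffer containing 75 μM ATP, 10 mM MgCl2, 2 mM DTT and 50 mM Tris-HCl. Pyk-2 substrate was then added for 2 h at room temperature. Phosphorylated product was captured on streptavidin plates and detected by anti-phosphotyrosine ELISA with an alkaline phosphatase/Attophos fluorescent read-out.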

PC-3 = assay: MTS Assay (cell growth inhibition), PC-3; format: cell-based; conditions: PC-3 cells, 72 hours with test compound; concentration not given
Method in brief: as §1

DLD-1 = assay: MTS Assay (cell growth inhibition), DLD-1; format: cell-based; conditions: DLD-1 cells, 72 hours with test compound; concentration not given
Method in brief: as §1

Kato III = assay: MTS Assay (cell growth inhibition), Kato III; format: cell-based; conditions: Kato III cells, 72 hours with test compound; concentration not given
Method in brief: as §1

NCI-H1299 = assay: MTS Assay (cell growth inhibition), NCI-H1299; format: cell-based; conditions: NCI-H1299 cells, 72 hours with test compound; concentration not given
Method in brief: as §1

c1ccc(C2c3[nH]c4ccccc4c3CCN2c2ncnc3[nH]ccc23)cc1 (stereo not drawn) [Compound 24, 1-phenyl-2-(7H-pyrrolo[2,3-d]pyrimidin-4-yl)-2,3,4,9-tetrahydro-1H-beta-carboline]
MTS cell kill data (% inhibition) PACA-2 (PACA-2): B (B = 50-79% inhibition)
MTS cell kill data (% inhibition) MDA-MB 231 (MDA-MB 231): C (C = <50% inhibition)
Biochemical IC50 (% inhibition) Tec (Tec kinase): B (B = 50-79% inhibition)
MTS cell kill data (% inhibition) PC-3 (PC-3): C (C = <50% inhibition)
MTS cell kill data (% inhibition) DLD-1 (DLD-1): B (B = 50-79% inhibition)
MTS cell kill data (% inhibition) Kato III (Kato III): B (B = 50-79% inhibition)
MTS cell kill data (% inhibition) NCI-H1299 (NCI-H1299): B (B = 50-79% inhibition)

c1ccc(C2c3[nH]c4ccccc4c3CCN2c2ncnc3[nH]cnc23)cc1 (stereo not drawn) [Compound 25, 1-phenyl-2-(9H-purin-6-yl)-2,3,4,9-tetrahydro-1H-beta-carboline]
MTS cell kill data (% inhibition) PACA-2 (PACA-2): B (B = 50-79% inhibition)
MTS cell kill data (% inhibition) MDA-MB 231 (MDA-MB 231): C (C = <50% inhibition)
Biochemical IC50 (% inhibition) Tec (Tec kinase): C (C = <50% inhibition)
MTS cell kill data (% inhibition) PC-3 (PC-3): C (C = <50% inhibition)
MTS cell kill data (% inhibition) DLD-1 (DLD-1): B (B = 50-79% inhibition)
MTS cell kill data (% inhibition) Kato III (Kato III): B (B = 50-79% inhibition)
MTS cell kill data (% inhibition) NCI-H1299 (NCI-H1299): B (B = 50-79% inhibition)

c1ccc(C2c3[nH]c4ccccc4c3CCN2c2ncnc3[nH]ncc23)cc1 (stereo not drawn) [Compound 26, 1-phenyl-2-(1H-pyrazolo[3,4-d]pyrimidin-4-yl)-2,3,4,9-tetrahydro-1H-beta-carboline]
MTS cell kill data (% inhibition) PACA-2 (PACA-2): B (B = 50-79% inhibition)
MTS cell kill data (% inhibition) MDA-MB 231 (MDA-MB 231): C (C = <50% inhibition)
Biochemical IC50 (% inhibition) Tec (Tec kinase): C (C = <50% inhibition)
MTS cell kill data (% inhibition) PC-3 (PC-3): C (C = <50% inhibition)
MTS cell kill data (% inhibition) DLD-1 (DLD-1): B (B = 50-79% inhibition)
MTS cell kill data (% inhibition) Kato III (Kato III): B (B = 50-79% inhibition)
MTS cell kill data (% inhibition) NCI-H1299 (NCI-H1299): B (B = 50-79% inhibition)

c1ccc(CCC2c3[nH]c4ccccc4c3CCN2c2ncnc3[nH]cnc23)cc1 (stereo not drawn) [Compound 27, 1-(2-phenylethyl)-2-(9H-purin-6-yl)-2,3,4,9-tetrahydro-1H-beta-carboline]
MTS cell kill data (% inhibition) PACA-2 (PACA-2): A (A = 80-100% inhibition)
MTS cell kill data (% inhibition) MDA-MB 231 (MDA-MB 231): A (A = 80-100% inhibition)
Biochemical IC50 (% inhibition) Tec (Tec kinase): B (B = 50-79% inhibition)
MTS cell kill data (% inhibition) PC-3 (PC-3): A (A = 80-100% inhibition)
MTS cell kill data (% inhibition) DLD-1 (DLD-1): A (A = 80-100% inhibition)
MTS cell kill data (% inhibition) Kato III (Kato III): A (A = 80-100% inhibition)
MTS cell kill data (% inhibition) NCI-H1299 (NCI-H1299): A (A = 80-100% inhibition)

Nc1nc(N2CCc3c([nH]c4ccccc34)C2CCc2ccccc2)c2nc[nH]c2n1 (stereo not drawn) [Compound 28, 6-[1-(2-phenylethyl)-1,3,4,9-tetrahydro-2H-beta-carbolin-2-yl]-9H-purin-2-amine]
MTS cell kill data (% inhibition) PACA-2 (PACA-2): C (C = <50% inhibition)
MTS cell kill data (% inhibition) MDA-MB 231 (MDA-MB 231): C (C = <50% inhibition)
Biochemical IC50 (% inhibition) Tec (Tec kinase): C (C = <50% inhibition)
MTS cell kill data (% inhibition) PC-3 (PC-3): C (C = <50% inhibition)
MTS cell kill data (% inhibition) DLD-1 (DLD-1): B (B = 50-79% inhibition)
MTS cell kill data (% inhibition) Kato III (Kato III): C (C = <50% inhibition)
MTS cell kill data (% inhibition) NCI-H1299 (NCI-H1299): B (B = 50-79% inhibition)

COc1ccc(C2c3[nH]c4ccccc4c3CCN2c2ncnc3[nH]cnc23)cc1 (stereo not drawn) [Compound 29, 1-(4-methoxyphenyl)-2-(9H-purin-6-yl)-2,3,4,9-tetrahydro-1H-beta-carboline]
MTS cell kill data (% inhibition) PACA-2 (PACA-2): B (B = 50-79% inhibition)
MTS cell kill data (% inhibition) MDA-MB 231 (MDA-MB 231): C (C = <50% inhibition)
Biochemical IC50 (% inhibition) Tec (Tec kinase): C (C = <50% inhibition)
MTS cell kill data (% inhibition) PC-3 (PC-3): C (C = <50% inhibition)
MTS cell kill data (% inhibition) DLD-1 (DLD-1): B (B = 50-79% inhibition)
MTS cell kill data (% inhibition) Kato III (Kato III): B (B = 50-79% inhibition)
MTS cell kill data (% inhibition) NCI-H1299 (NCI-H1299): B (B = 50-79% inhibition)

COc1ccc(C2c3[nH]c4ccccc4c3CCN2c2ncnc3[nH]ccc23)cc1 (stereo not drawn) [Compound 30, 1-(4-methoxyphenyl)-2-(7H-pyrrolo[2,3-d]pyrimidin-4-yl)-2,3,4,9-tetrahydro-1H-beta-carboline]
MTS cell kill data (% inhibition) PACA-2 (PACA-2): B (B = 50-79% inhibition)
MTS cell kill data (% inhibition) MDA-MB 231 (MDA-MB 231): A (A = 80-100% inhibition)
Biochemical IC50 (% inhibition) Tec (Tec kinase): C (C = <50% inhibition)
MTS cell kill data (% inhibition) PC-3 (PC-3): A (A = 80-100% inhibition)
MTS cell kill data (% inhibition) DLD-1 (DLD-1): B (B = 50-79% inhibition)
MTS cell kill data (% inhibition) Kato III (Kato III): A (A = 80-100% inhibition)
MTS cell kill data (% inhibition) NCI-H1299 (NCI-H1299): B (B = 50-79% inhibition)

COc1ccc(C2c3[nH]c4ccccc4c3CCN2c2ncnc3[nH]ncc23)cc1 (stereo not drawn) [Compound 31, 1-(4-methoxyphenyl)-2-(1H-pyrazolo[3,4-d]pyrimidin-4-yl)-2,3,4,9-tetrahydro-1H-beta-carboline]
MTS cell kill data (% inhibition) PACA-2 (PACA-2): B (B = 50-79% inhibition)
MTS cell kill data (% inhibition) MDA-MB 231 (MDA-MB 231): B (B = 50-79% inhibition)
Biochemical IC50 (% inhibition) Tec (Tec kinase): B (B = 50-79% inhibition)
MTS cell kill data (% inhibition) PC-3 (PC-3): C (C = <50% inhibition)
MTS cell kill data (% inhibition) DLD-1 (DLD-1): B (B = 50-79% inhibition)
MTS cell kill data (% inhibition) Kato III (Kato III): B (B = 50-79% inhibition)
MTS cell kill data (% inhibition) NCI-H1299 (NCI-H1299): B (B = 50-79% inhibition)
